Measured values as given in patent US10968203B2, “Pyrimidinyl-pyridyloxy-naphthyl compounds and methods of treating IRE1-related diseases and disorders” (Genentech, Inc., priority 2017, dated 2021).
Structures can show the parent of a compound that is named as a salt.

Each molecule was assayed on XBP1s-luc 293 LUC (assay: cellular PD assay, XBP1s-LUC reporter (Example 903)). Details: Table 1; read-out: XBP1s-luc 293 LUC (IC50).
Type: cell-based
Method: Inhibition of IRE1α RNase activity was determined in an enzyme assay that measured cleavage of the XBP1 stem loop by autophosphorylated IRE1α. This assay format was chosen to ensure that inhibitors of either the IRE1α kinase or the RNase domains would be identified. Binding to the ATP pocket and inhibition of IRE1α kinase activity are not necessarily required to inhibit the RNase activity. Compounds were also profiled in cellular assays by direct measurement of XBP s (B-DNA assay) or by quantification of the luciferase signal in HT1080 XBP1-Luc, which carries a luciferase fusion that is only in frame and expressed from the spliced XBP1 transcript.
Biological activity of Formula I or I′ compounds was measured by an IRE1 biochemical binding assay (Example 901), a biochemical RNase assay (Example 902), a cellular PD assay, XBP1s-LUC reporter (Example 903), and an IRE1α-based inhibition of multiple myeloma (MM) cell proliferation assay.
All of the exemplary Formula I or I′ compounds in Tables 1 and 2 were made and characterized by LCMS [M+H]^+ (liquid chromatography mass spectroscopy) with detection of parent ion. All of the exemplary Formula I compounds in Tables 1 and 2 were prepared according to the procedures of the Schemes, General Procedures, and Examples. All of the exemplary Formula I or I′ compounds in Tables 1 and 2 were tested for binding to IRE1 (inositol requiring enzyme 1 alpha) and biological activity according to the assays and protocols of Example 901-903. Exemplary Formula I or I′ compounds in Tables 1 and 2 have the following structures, corresponding IUPAC names (ChemBioDraw, Version 12.0.2, CambridgeSoft Corp., Cambridge Mass.), and biological activity. Where more than one name is associated with a Formula I or I′ compound or intermediate in Tables 1 and 2 and the Experimental Procedures, the chemical structure shall define the compound. Assignment of configuration at chiral centers in separated stereoisomers may be tentative, and depicted in Tables 1 and 2 structures for illustrative purposes, before stereochemistry is definitively established, such as from x-ray crystallographic data. In some cases, stereoisomers are separated and tested for biological activity before the stereochemistry of the separated stereoisomers is determined; and stereochemistry in some instances was inferred based on structure-activity relationship (SAR) knowledge from previous compounds. In some cases, the compounds are tested as racemic or diastereomeric mixtures. Where more than one potency value is entered on a row, separated stereoisomers represented by the structure and name on that row were tested. Exemplary compounds of Formula I or I′ in Table 3 can be prepared using methods known in the art or according to procedures similar to those described in the Schemes, General Procedures, and Examples 101-500. Biological activities of compounds in Table 3 can be tested in biological assays, for example, those in Examples 901, 902 and 903 described herein.

Compound | IC50 [nM]
CCC(C)S(=O)(=O)Nc1cccc2c(Oc3ncccc3-c3ccnc(N[C@H]4CCCNC4)n3)c(C)ccc12 (mixture of isomers) [Example 134, N-(6-Methyl-5-((3-(2-((S)-piperidin-3-ylamino)pyrimidin-4-yl)pyridin-2-yl)oxy)naphthalen-1-yl) butane-2-sulfonamide] | 260
Cc1ccc2c(Nc3ccn(C)n3)c(F)ccc2c1Oc1ncccc1-c1ccnc(N[C@H]2CCCNC2)n1 [Example 359, (S)-4-(2-((6-Fluoro-2-methyl-5-((1-methyl-1H-pyrazol-3-yl)amino)naphthalen-1-yl)oxy)pyridin-3-yl)-N-(piperidin-3-yl)pyrimidin-2-amine] | 438
Cc1ccc2c(NCCC(C)O)cccc2c1Oc1ncccc1-c1ccnc(N[C@H]2CCCNC2)n1 (mixture of isomers) [Example 390, 4-((6-Methyl-5-((3-(2-((S)-piperidin-3-ylamino)pyrimidin-4-yl)pyridin-2-yl)oxy)naphthalen-1-yl)amino)butan-2-ol] | 143
Cc1ccc2c(NS(=O)(=O)Cc3ccccc3)c(F)ccc2c1Oc1ncccc1-c1ccnc(N[C@H]2CCCNC2)n1 [Example 283, (S)—N-(2-Fluoro-6-methyl-5-((3-(2-(piperidin-3-ylamino)pyrimidin-4-yl)pyridin-2-yl)oxy)naphthalen-1-yl)-1-phenylmethanesulfonamide] | 2.96
Cc1ccc2c(NC(=O)CC(C)(C)C)cccc2c1Oc1ncccc1-c1ccnc(N[C@H]2CCCNC2)n1 [Example 198, (S)-3,3-Dimethyl-N-(6-methyl-5-((3-(2-(piperidin-3-ylamino)pyrimidin-4-yl)pyridin-2-yl)oxy)naphthalen-1-yl)butanamide] | 161
COC(C)CS(=O)(=O)Nc1cccc2c(Oc3ncccc3-c3ccnc(N[C@H]4CCCNC4)n3)c(C)ccc12 (stereo partly drawn) [Example 138, 2-Methoxy-N-(6-methyl-5-((3-(2-((S)-piperidin-3-ylamino)pyrimidin-4-yl)pyridin-2-yl)oxy)naphthalen-1-yl)propane-1-sulfonamide] | 388
Cc1ccc2c(NS(=O)(=O)CCC3CC3)cccc2c1Oc1ncccc1-c1ccnc(N[C@H]2CCCNC2)n1 [Example 129, (S)-2-Cyclopropyl-N-(6-methyl-5-((3-(2-(piperidin-3-ylamino)pyrimidin-4-yl)pyridin-2-yl)oxy)naphthalen-1-yl)ethanesulfonamide] | 301
Cc1ccc2c(N3CCCC3=O)c(F)ccc2c1Oc1ncccc1-c1ccnc(N[C@H]2CCCNC2)n1 [Example 335, (S)-1-(2-Fluoro-6-methyl-5-((3-(2-(piperidin-3-ylamino)pyrimidin-4-yl)pyridin-2-yl)oxy)naphthalen-1-yl)pyrrolidin-2-one] | 384
Cc1ccc2c(NC(=O)C(C)C)cccc2c1Oc1ncccc1-c1ccnc(N[C@H]2CCCNC2)n1 [Example 263, (S)—N-(6-Methyl-5-((3-(2-(piperidin-3-ylamino)pyrimidin-4-yl)pyridin-2-yl)oxy)naphthalen-1-yl)isobutyramide hydrochloride] | 362
CCCS(=O)(=O)Nc1c(F)ccc2c(Oc3ncccc3-c3ccnc(N[C@H]4CCCNC4)n3)c(C)ccc12 [Example 221, (S)—N-(2-Fluoro-6-methyl-5-((3-(2-(piperidin-3-ylamino)pyrimidin-4-yl)pyridin-2-yl)oxy)naphthalen-1-yl)propane-1-sulfonamide] | 37
Cc1ccc2c(NC(=O)C3CC3)c(F)ccc2c1Oc1ncccc1-c1ccnc(N[C@H]2CCCNC2)n1 [Example 271, (S)—N-(2-Fluoro-6-methyl-5-((3-(2-(piperidin-3-ylamino)pyrimidin-4-yl)pyridin-2-yl)oxy)naphthalen-1-yl)cyclopropanecarboxamide] | 271
CCC1CCC(=O)N1c1cccc2c(Oc3ncccc3-c3ccnc(N[C@H]4CCCNC4)n3)c(C)ccc12 (single isomer, unassigned) [Example 357] | 260
Cc1ccc2c(NS(=O)(=O)CC3CC3)cccc2c1Oc1ncccc1-c1ccnc(N[C@H]2CCCNC2)n1 [Example 124, (S)-1-Cyclopropyl-N-(6-methyl-5-((3-(2-(piperidin-3-ylamino)pyrimidin-4-yl)pyridin-2-yl)oxy)naphthalen-1-yl)methanesulfonamide hydrochloride] | 105
Cc1ccc2c(NCc3ccccn3)c(F)ccc2c1Oc1ncccc1-c1ccnc(N[C@H]2CCCNC2)n1 [Example 296, (S)-4-(2-((6-Fluoro-2-methyl-5-((pyridin-2-ylmethyl)amino)naphthalen-1-yl)oxy)pyridin-3-yl)-N-(piperidin-3-yl)pyrimidin-2-amine] | 220
Cc1ccc2c(NC(=O)[C@H]3CC34CC4)c(F)ccc2c1Oc1ncccc1-c1ccnc(N[C@H]2CCCNC2)n1 (single isomer, unassigned) [Example 379] | 279
Cc1ccc2c(NC(=O)Cc3cccc(F)c3)cccc2c1Oc1ncccc1-c1ccnc(N[C@H]2CCCNC2)n1 [Example 193, (S)-2-(3-Fluorophenyl)-N-(6-methyl-5-((3-(2-(piperidin-3-ylamino)pyrimidin-4-yl)pyridin-2-yl)oxy)naphthalen-1-yl)acetamide] | 86

Same assay, conditions: Table 2; read-out: XBP1s-luc 293 LUC (IC50)

Compound | IC50 [nM]
Cc1ccc2c(NS(=O)(=O)CC3(F)CC3)c(F)ccc2c1Oc1ncccc1-c1ccnc(N[C@@H]2CNC[C@H](C)C2)n1 [Example 487, N-(2-Fluoro-6-methyl-5-((3-(2-(((3S,5R)-5-methylpiperidin-3-yl)amino)pyrimidin-4-yl)pyridin-2-yl)oxy)naphthalen-1-yl)-1-(1-fluorocyclopropyl)methanesulfonamide hydrochloride] | 9
Cc1ccc2c(NS(=O)(=O)C[C@@H]3CC34CC4)c(F)ccc2c1Oc1ncccc1-c1ccnc(N[C@H]2CCCNC2)n1 (single isomer, unassigned) [Example 473, hydrochloride] | 76
Cc1ccc2c(NCC(=O)C3CC3)cccc2c1Oc1ncccc1-c1ccnc(N[C@H]2CCCNC2)n1 [Example 459, (S)-1-Cyclopropyl-2-((6-methyl-5-((3-(2-(piperidin-3-ylamino)pyrimidin-4-yl)pyridin-2-yl)oxy)naphthalen-1-yl)amino)ethanone hydrochloride] | 312
Cc1ccc2c(NS(=O)(=O)Cc3ccccc3F)c(F)ccc2c1Oc1ncccc1-c1ccnc(N[C@@H]2CNC[C@@H](F)C2)n1 (single isomer, unassigned) [Example 464, hydrochloride] | 4
COC(C)CS(=O)(=O)Nc1c(F)ccc2c(Oc3ncccc3-c3ccnc(N[C@H]4CCCNC4)n3)c(C)ccc12 (stereo partly drawn) [Example 404, N-(2-Fluoro-6-methyl-5-((3-(2-(((S)-piperidin-3-yl)amino)pyrimidin-4-yl)pyridin-2-yl)oxy)naphthalen-1-yl)-2-methoxypropane-1-sulfonamide] | 34
Cc1ccc2c(NS(=O)(=O)CC(C)C)c(F)ccc2c1Oc1ncccc1-c1ccnc(N[C@@H]2CNC[C@@H](C)C2)n1 [Example 401, N-[2-Fluoro-6-methyl-5-[[3-[2-[[(3S,5S)-5-methyl-3-piperidyl]amino]pyrimidin-4-yl]-2-pyridyl]oxy]-1-naphthyl]-2-methyl-propane-1-sulfonamide hydrochloride] | 67
